Test results from patent publication US20250304533A1, “THERAPEUTIC ALKALOID COMPOUNDS” (Sensorium Therapeutics, Inc., priority 2022, published 2025).
Like-named read-outs stand apart in the source and are kept apart here.

Columns and labels:
SERT = target: T1, SERT (Homo sapiens, UniProt P31645); assay: SERT Inhibition Assay of Example A1 (Neurotransmitter Transporter fluorescence uptake, stable 5HTT cells); assay type: cell-based
T1 construct: expressed in transfected cells
Method: SERT inhibition was measured using a Neruotransmitter Transportation Fluorescence assay. Briefly, stable 5HTT cells were prepared in a 384 microwell plate. Compounds were prepared by in assay buffer (20 mM HEPES, 0.1% BSA). The compounds were added to the plated cells and incubated for 30 minutes at 37° C. 25 μL of dye solution (Molecular Devices Neurotransmitter Transporter Uptake Assay Kit) is added per well and incubated for 30 minutes at 37° C. The plates are then read on a plate reader.

PDE4A1A = target: T2, PDE4A1A (Homo sapiens, UniProt P27815); assay: Recombinant PDE4 Inhibition Assay of Example A2; assay type: biochemical; conditions: recombinant enzyme
T2 construct: purchased BPSBioscience
T2 sequence (P27815 1-647 isoform P27815-4): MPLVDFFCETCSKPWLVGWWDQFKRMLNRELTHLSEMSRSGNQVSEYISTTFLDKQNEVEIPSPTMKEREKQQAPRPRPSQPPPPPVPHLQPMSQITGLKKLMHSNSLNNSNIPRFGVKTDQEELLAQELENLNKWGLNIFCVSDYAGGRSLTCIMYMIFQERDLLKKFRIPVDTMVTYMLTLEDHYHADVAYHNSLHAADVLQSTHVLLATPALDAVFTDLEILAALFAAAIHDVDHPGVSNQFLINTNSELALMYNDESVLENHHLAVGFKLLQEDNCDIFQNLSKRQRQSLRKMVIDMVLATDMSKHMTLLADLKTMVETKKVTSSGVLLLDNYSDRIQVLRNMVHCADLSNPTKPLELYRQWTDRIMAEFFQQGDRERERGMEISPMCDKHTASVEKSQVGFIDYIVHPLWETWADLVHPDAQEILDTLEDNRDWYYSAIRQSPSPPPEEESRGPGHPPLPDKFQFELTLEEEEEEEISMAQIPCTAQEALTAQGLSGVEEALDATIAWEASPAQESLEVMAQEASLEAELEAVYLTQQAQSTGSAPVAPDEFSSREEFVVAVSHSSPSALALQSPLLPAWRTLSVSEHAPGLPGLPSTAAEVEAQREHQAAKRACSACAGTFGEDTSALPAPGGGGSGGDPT
Method: (§1) Recombinant PDE assay inhibition can be measured according to the BPSBioscience PDE4 assay kit, as described below.
(§2) 1) Dilute 20 µM FAM-Cyclic-3′,5′-AMP stock 100-fold with PDE buffer to make a 200 nM solution. Make only sufficient quantity needed for the assay; store remaining […] stock solution in aliquots at −20° C. 2) Add 25 μl of FAM-Cyclic-3′,5′-AMP (200 nM) to each well designated “Positive Control”, “Test Inhibitor”, and “Substrate Control”. 3) Add 20 μl of PDE assay buffer to each well designated “Substrate Control” and 45 μl of PDE assay buffer to each well designated “Blank”. 4) Add 5 μl of inhibitor solution to each well designated “Test Inhibitor”. For the wells labeled “Positive Control”, “Substrate Control” and “Blank”, add 5 μl of the same solution without inhibitor (inhibitor buffer). 5) Thaw PDE on ice. Upon first thaw, briefly spin tube containing enzyme to recover the full contents of the tube. 6) Dilute PDE4 in PDE buffer to 7.5 pg/μl (0.15 ng/reaction)*. Initiate reaction by adding 20 μl of PDE4 (7.5 pg/μl) to the wells designated “Positive Control” and “Test Inhibitor.” 7) Incubate at room temperature for 1 hour.
(§3) 1) Mix binding agent thoroughly and dilute binding agent 1:100 with binding agent diluent. 2) Add 100 μl diluted binding agent to each microwell. Incubate at room temperature for 1 hour with slow shaking. 3) Read the fluorescent polarization of the sample in a microtiter-plate reader equipped for the measurement of fluorescence polarization, capable of excitation at wavelengths ranging from 485±5 nm and detection of emitted light ranging from 528±10 nm. Blank value is subtracted from all other values.

PDE4B2 = target: T3, PDE4B2 (Homo sapiens, UniProt Q07343); assay: Recombinant PDE4 Inhibition Assay of Example A2; assay type: biochemical; conditions: recombinant enzyme
T3 construct: purchased BPSBioscience
T3 sequence (Q07343 1-564 isoform Q07343-2): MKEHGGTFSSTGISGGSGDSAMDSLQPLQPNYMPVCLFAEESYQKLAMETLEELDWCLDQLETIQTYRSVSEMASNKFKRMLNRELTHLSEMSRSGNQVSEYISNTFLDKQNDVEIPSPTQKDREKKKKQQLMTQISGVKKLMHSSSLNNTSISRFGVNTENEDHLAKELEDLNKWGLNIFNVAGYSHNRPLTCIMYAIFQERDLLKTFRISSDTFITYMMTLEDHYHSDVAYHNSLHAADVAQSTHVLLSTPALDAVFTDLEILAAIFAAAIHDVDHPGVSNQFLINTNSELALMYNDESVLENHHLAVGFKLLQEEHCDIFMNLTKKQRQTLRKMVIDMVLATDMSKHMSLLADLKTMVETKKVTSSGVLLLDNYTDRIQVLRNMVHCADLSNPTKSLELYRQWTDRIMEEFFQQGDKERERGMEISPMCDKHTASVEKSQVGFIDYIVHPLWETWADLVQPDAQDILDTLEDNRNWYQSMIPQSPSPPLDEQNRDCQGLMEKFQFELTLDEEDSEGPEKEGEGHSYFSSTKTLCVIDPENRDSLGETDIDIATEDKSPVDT
Method: as §1, §2, §3

PDE4C1 = target: T4, PDE4C1 (Homo sapiens, UniProt Q08493); assay: Recombinant PDE4 Inhibition Assay of Example A2; assay type: biochemical; conditions: recombinant enzyme
T4 construct: purchased BPSBioscience
T4 sequence (Q08493 whole entry): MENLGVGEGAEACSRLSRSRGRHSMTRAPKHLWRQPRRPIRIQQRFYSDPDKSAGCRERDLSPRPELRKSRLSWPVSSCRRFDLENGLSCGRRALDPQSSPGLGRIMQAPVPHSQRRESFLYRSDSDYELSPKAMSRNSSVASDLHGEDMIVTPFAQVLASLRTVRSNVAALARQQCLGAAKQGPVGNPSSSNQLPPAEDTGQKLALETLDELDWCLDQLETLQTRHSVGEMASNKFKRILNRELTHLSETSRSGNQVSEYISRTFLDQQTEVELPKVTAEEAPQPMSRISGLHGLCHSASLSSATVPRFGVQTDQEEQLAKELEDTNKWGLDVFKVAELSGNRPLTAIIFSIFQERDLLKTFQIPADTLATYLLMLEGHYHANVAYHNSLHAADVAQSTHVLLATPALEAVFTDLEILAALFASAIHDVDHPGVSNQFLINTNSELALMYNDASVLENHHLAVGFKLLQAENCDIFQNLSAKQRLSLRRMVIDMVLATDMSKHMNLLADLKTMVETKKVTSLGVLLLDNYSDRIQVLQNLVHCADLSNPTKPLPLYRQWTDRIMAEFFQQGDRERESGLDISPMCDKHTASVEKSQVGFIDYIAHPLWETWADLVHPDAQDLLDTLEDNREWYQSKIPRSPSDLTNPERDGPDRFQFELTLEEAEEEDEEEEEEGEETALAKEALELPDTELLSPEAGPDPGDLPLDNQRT
Method: as §1, §2, §3

PDE4D2 = target: T5, PDE4D2 (Homo sapiens, UniProt Q08499); assay: Recombinant PDE4 Inhibition Assay of Example A2; assay type: biochemical; conditions: recombinant enzyme
T5 construct: purchased BPSBioscience
T5 sequence (Q08499 303-809): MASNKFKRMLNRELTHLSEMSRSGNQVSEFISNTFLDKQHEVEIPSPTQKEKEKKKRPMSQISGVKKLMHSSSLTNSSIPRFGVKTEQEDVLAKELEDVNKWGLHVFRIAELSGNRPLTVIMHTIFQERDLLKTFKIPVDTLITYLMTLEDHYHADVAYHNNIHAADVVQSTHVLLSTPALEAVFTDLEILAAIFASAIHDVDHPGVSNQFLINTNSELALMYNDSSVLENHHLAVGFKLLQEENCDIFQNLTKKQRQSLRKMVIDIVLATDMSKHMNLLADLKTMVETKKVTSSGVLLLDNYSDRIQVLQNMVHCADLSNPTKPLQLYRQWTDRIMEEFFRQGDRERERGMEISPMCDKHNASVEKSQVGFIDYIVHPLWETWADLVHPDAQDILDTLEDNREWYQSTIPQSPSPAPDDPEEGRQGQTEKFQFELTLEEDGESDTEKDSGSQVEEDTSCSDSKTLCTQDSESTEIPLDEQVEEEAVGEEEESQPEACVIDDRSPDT
Method: as §1, §2, §3

[1] = cited from earlier work
[2] = target: 5-HT transporter (“SERT”) (Homo sapiens, UniProt P31645); conditions: Hill coefficient of binding curve, Harvey et al., 2011; cited from earlier work
5-HT transporter (“SERT”), sequence (P31645 whole entry, species assumed): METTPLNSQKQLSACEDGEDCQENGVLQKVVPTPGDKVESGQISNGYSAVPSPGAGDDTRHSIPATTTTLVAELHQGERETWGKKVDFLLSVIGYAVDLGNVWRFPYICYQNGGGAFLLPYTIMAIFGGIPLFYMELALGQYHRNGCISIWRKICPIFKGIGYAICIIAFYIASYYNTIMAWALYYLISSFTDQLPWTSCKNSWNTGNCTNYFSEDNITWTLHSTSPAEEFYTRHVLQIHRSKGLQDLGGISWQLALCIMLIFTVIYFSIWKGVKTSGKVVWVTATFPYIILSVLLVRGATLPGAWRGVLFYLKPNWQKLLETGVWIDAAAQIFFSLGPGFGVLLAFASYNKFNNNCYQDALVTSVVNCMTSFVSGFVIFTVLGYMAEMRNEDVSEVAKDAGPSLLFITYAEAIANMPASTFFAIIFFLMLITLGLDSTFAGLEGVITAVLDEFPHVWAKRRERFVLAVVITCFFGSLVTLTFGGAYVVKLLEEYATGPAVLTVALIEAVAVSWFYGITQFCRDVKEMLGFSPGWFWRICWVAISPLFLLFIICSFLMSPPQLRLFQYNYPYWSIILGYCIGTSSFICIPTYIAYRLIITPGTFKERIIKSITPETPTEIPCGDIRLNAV

[3] = class symbols, read-out: SERT IC50

T1 sequence (P31645 whole entry, species assumed): as above

Compound	IC50 (SERT; [3])	IC50 (SERT; read-out: SERT inhibition IC50)	IC50 (PDE4A1A)	IC50 (PDE4B2)	IC50 (PDE4C1)	IC50 (PDE4D2)	half-life in plasma [1]	5-HT transporter (“SERT”) nH [2]
COc1cc([C@@]23C=CC(=O)C[C@@H]2N(C)CC3)cc(F)c1OC [Compound 133, (3aR,7aS)-3a-(3-fluoro-4,5-dimethoxy-phenyl)-1-methyl-2,3,7,7a-tetrahydroindol-6-one]	0.1 to 0.5 µM	< 1 µM	1 to 10 µM	1 to 10 µM	> 10 µM	> 10 µM		
COc1ccc([C@@]23CCC(=O)C[C@@H]2N(C)CC3)cc1OC [(−) mesembrine]							less than 2 hours	
COc1cc([C@@]23C=CC(=O)CC2N(C)CC3)cc(Br)c1OC (stereo partly drawn) [Compound 130, (3aR)-3a-(3-bromo-4,5-dimethoxy-phenyl)-1-methyl-2,3,7,7a-tetrahydroindol-6-one]	0.5 to 1 µM	< 1 µM	> 10 µM	> 10 µM	> 10 µM	> 10 µM		
COc1ccc([C@@]23C=CC(=O)C[C@@H]2N(C)CC3)cc1OC [Mesembrenone]								1.0
COc1cc(C23C=CC(=O)CC2N(C)CC3)cc(OC)c1OC (centres unmarked) [Compound 144, 1-methyl-3a-(3,4,5-trimethoxyphenyl)-2,3,7,7a-tetrahydroindol-6-one]	> 1 µM	> 1 µM	> 10 µM	> 10 µM	> 10 µM	> 10 µM		
COc1cc([C@@]23C=CC(=O)C[C@@H]2N(C)CC3)cc(I)c1OC [Compound 132, (3aR,7aS)-3a-(3-iodo-4,5-dimethoxy-phenyl)-1-methyl-2,3,7,7a-tetrahydroindol-6-one]	0.1 to 0.5 µM	< 1 µM	> 10 µM	> 10 µM	> 10 µM	> 10 µM		
